Data: US10220024B2, “Method of inhibiting cancer cell, method for detecting cancer cell, and system for detecting cancer cell” (CANON KABUSHIKI KAISHA, priority 2012, dated 2019)
Read-outs that look alike come from different tables or passages of the source.

Legend:
[1] = test system: Prostatic cancer cells, PC-3; assay: Cancer cell inhibitory (growth suppressive) action against prostatic cancer cells, CellTiter-Glo viable cell count; type: cell-based; settings: PC-3, 10 μg/mL, 24 hours
Protocol: Prostatic cancer cells, PC-3, were pre-cultured in RPMI1640 medium containing 10% FBS at 37° C. in a 5% CO2 ambient. Thereafter, 4,000 cells were seeded per well of a 96-well plate and further cultured for 24 hours. Subsequently, Compound (11) was added to the medium so as to obtain a final concentration of 10 μg/mL and cultured at 37° C. for 24 hours in a 5% CO2 ambient. The cultured cells were analyzed for viable cell count according to CellTiter-Glo Luminescent Cell Viability Assay (manufactured by Promega KK.). As a reference, the number of cells cultured in a medium containing a 0.1% dimethylsulfoxide solution (hereinafter, simply referred to as DMSO) in place of a medium containing Compound (11), in the aforementioned operation, was used as 100.
Viable cell count was analyzed in the same manner as in Experimental Example 8 except that the compounds shown in Table 3 were used in place of Compound (11) of Experimental Example 8.
Viable cell count was analyzed in the same manner as in Experimental Example 8 except that comparative compounds 1 to 4 were used in place of Compound (11) of Experimental Example 8.
The growth rate in Examples herein is a numerical value of the number of cells obtained after culture relative to the number of cells (regarded as 100) grown in a medium containing 0.1% DMSO.
Evaluation of cancer cell inhibition against the prostatic cancer cells (PC-3) was made as follows. • A: Cancer cell growth rate is less than 20% (cancer cell inhibitory (growth suppressive) effect is extremely high) • B: Cancer cell growth rate is 20% or more and less than 50% (cancer cell inhibitory (growth suppressive) effect is high) • C: Cancer cell growth rate is 50% or more (cancer cell inhibitory (growth suppressive) effect is low)

[2] = test system: K562 ALDH (−) fraction (general cancer cells); assay: Cancer stem-cell selective inhibitory action against chronic myelocytic leukemia cells, ALDH (−) fraction, CellTiter-Glo; type: cell-based, Human; settings: Homo sapiens, 24 hours, relative to 0.1% DMSO, read-out: ALDH(−) (growth rate)
Protocol: (§1) Human chronic myelocytic leukemia cells, K562, were pre-cultured in RPMI1640 medium containing 10% FBS at 37° C. in a 5% CO2 ambient. Then, a fraction containing 80% or more of cancer stem cells was extracted by use of ALDEFLUOR reagent (manufactured by VERITAS Corporation) and FACSAria flow cytometry (manufactured by Nippon Becton, Dickinson and Company). Subsequently, Compound (5) was added to the medium so as to obtain a final concentration of 10 μg/mL and cultured at 37° C. for 24 hours in a 5% CO2 ambient. The cultured cells were analyzed for viable cell count according to CellTiter-Glo Luminescent Cell Viability Assay (manufactured by Promega KK.). As a reference, the number of cells cultured in a medium containing a 0.1% dimethylsulfoxide solution (hereinafter, simply referred to as DMSO) in place of a medium containing Compound (1), in the aforementioned operation, was used as 0.1. Note that hereinafter, an ALDEFLUOR reagent positive fraction (deemed as cancer stem cells) is represented by ALDH (+), whereas an ALDEFLUOR reagent negative fraction (not deemed as cancer stem cells) is represented by ALDH (−), in some cases.
(§2) The same operation as in Experimental Example 12 was repeated except that Compound (5) in Experimental Example 12 was changed to the compounds shown in Table 4 and final concentrations shown in Table 4 were used and viable cell counts were separately analyzed. Note that the growth rate in Examples herein is a numerical value of the number of cells obtained after culture relative to the number of cells (regarded as 0.1) grown in a medium containing 0.1% DMSO.
(§3) The same operation as in Experimental Example 12 was repeated except that Compound (5) in Experimental Example 12 was changed to Imatinib (manufactured by NOVARTIS), which is a general anticancer drug, and comparative compounds shown in Table 4 and final concentrations shown in Table 4 were used and viable cell counts were separately analyzed.
(§4) The growth suppressive effect of cancer stem cells was evaluated based on the following criteria. Note that the growth rate in Examples herein is a numerical value relative to the number of cells (regarded as 0.1) grown in a medium containing 0.1% DMSO. • A: The value of ALDH (+) is less than 0.5 (growth suppressive effect against cancer stem cells is extremely high) • B: The value of ALDH (+) is 0.5 or more and less than 0.95 (growth suppressive effect against cancer stem cells is high) • C: The value of ALDH (+) is 0.95 or more (no growth suppressive effect against cancer stem cells)
(§5) Furthermore, superiority of cancer stem cells was evaluated by comparing cancer stem cells to cancer cells based on the following criteria. ALDH (+) represents cancer stem cells; whereas ALDH (−) represents general cancer cells. • A: The value of ALDH (+)/ALDH (−) is less than 0.8 (selective inhibitory effect against cancer stem cells is extremely high) • B: The value of ALDH (+)/ALDH (−) is 0.8 or more and less than 0.95 (selective inhibitory effect against cancer stem cells is high) • C: The value of ALDH (+)/ALDH (−) is 0.95 or more (no selective inhibitory effect against cancer stem cells)

[3] = test system: K562 ALDH (+) fraction (cancer stem cells); assay: Cancer stem-cell selective inhibitory action against chronic myelocytic leukemia cells, ALDH (+) fraction, CellTiter-Glo; type: cell-based; settings: Homo sapiens, 24 hours; for activity at 0.05 µg/mL: 0.05 μg/mL; for activity at 0.5 µg/mL: 0.5 μg/mL; for activity at 1 µg/mL: 1 μg/mL
Protocol: as §1, §2, §3, §4, §5

[4] = read-out: Growth suppression evaluated
[5] = relative to 0.1% DMSO, read-out: ALDH(+) (growth rate)

With `COc1ccc(N2c3ccc(/C=C/C4=[N+](C)c5ccccc5C4(C)C)cc3C3CCCC32)cc1` (centres unmarked) [Compound 11] as the compound, how does the activity at 10 µg/mL ([1]; read-out: Evaluation (cancer cell growth rate)) read?
The activity at 10 µg/mL was less than 20%.

What about the activity at 10 µg/mL ([1]; relative to 0.1% DMSO (100), read-out: Cancer cell growth rate (%)) of the same compound?
Its activity at 10 µg/mL is 6.7%.

What about the activity at 0.05 µg/mL ([2]; 0.05 μg/mL) of the same compound?
Its activity at 0.05 µg/mL is 77%.

And the activity at 0.5 µg/mL ([2]; 0.5 μg/mL)?
Its activity at 0.5 µg/mL is 49%.

And the activity at 1 µg/mL ([2]; 1 μg/mL)?
Its activity at 1 µg/mL is 22%.

And the activity at 0.05 µg/mL [3, 4]?
Its activity at 0.05 µg/mL is 50 to 95%.

What about the activity at 0.05 µg/mL [3, 5] of the same compound?
The activity at 0.05 µg/mL was 65%.

What about the activity at 0.5 µg/mL [3, 4] of the same compound?
Its activity at 0.5 µg/mL is less than 50%.

What about the activity at 0.5 µg/mL [3, 5] of the same compound?
Its activity at 0.5 µg/mL is 32%.

What about the activity at 1 µg/mL [3, 4] of the same compound?
The activity at 1 µg/mL was less than 50%.

What about the activity at 1 µg/mL [3, 5] of the same compound?
Its activity at 1 µg/mL is 12%.
